Test results as given in ChEMBL document CHEMBL1201862, “PubChem BioAssay data set” (2004).
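Following 48 hours of exposure in 96-well plates, responses at five concentrations were used to interpolate endpoints linearly. Here, GI50 denotes the concentration required for 50% inhibition of growth.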 The source made the active and inactive calls. No stated cut-off is given here; in the data, active = GI50 up to about 1.1 µM and inactive = higher.

Key:
Assay in all cases: NCI-60 cell line screen, 48 h
[1] = tested on: RPMI-8226
[2] = tested on: HOP-92
[3] = tested on: SNB-19
[4] = tested on: SN12C
[5] = tested on: NCI/ADR-RES
[6] = tested on: OVCAR-4
[7] = tested on: MDA-MB-231
[8] = tested on: MDA-N
[9] = tested on: TK-10
[10] = tested on: Malme-3M
[11] = tested on: A549
[12] = tested on: HT-29
[13] = tested on: NCI-H23
[14] = tested on: A498
[15] = tested on: UO-31
[16] = tested on: SF-295
[17] = tested on: UACC-257
[18] = tested on: UACC-62
[19] = tested on: HL-60
[20] = tested on: M19-MEL

Compound | GI50 [1] | GI50 [2] | GI50 [3] | GI50 [4] | GI50 [5] | GI50 [6] | GI50 [7] | GI50 [8] | GI50 [9] | GI50 [10] | GI50 [11] | GI50 [12] | GI50 [13] | GI50 [14] | GI50 [15] | GI50 [16] | GI50 [17] | GI50 [18] | GI50 [19] | GI50 [20]
Nn1c(Sc2nc3ccccc3c(=O)n2N)nc2ccccc2c1=O | 3.5 µM (inactive) | 6.92 µM (inactive) | 6.92 µM (inactive) | 5.75 µM (inactive) | 7.76 µM (inactive) | 26.7 µM (inactive) | 7.93 µM (inactive) | 4.04 µM (inactive) | 21.2 µM (inactive) | 3.57 µM (inactive) | 14.2 µM (inactive) | 3.4 µM (inactive) | 1.91 µM (inactive) | 16 µM (inactive) | 1.73 µM (inactive) | 18.2 µM (inactive) | 16.5 µM (inactive) | 11.5 µM (inactive) | 2.51 µM (inactive) | –
CCC(=O)/C=C/c1ccccc1 | 54.3 µM (inactive) | > 100 µM (inactive) | 44 µM (inactive) | 43.2 µM (inactive) | 47.6 µM (inactive) | 95.9 µM (inactive) | > 100 µM (inactive) | 40.6 µM (inactive) | > 100 µM (inactive) | > 100 µM (inactive) | > 100 µM (inactive) | 43.7 µM (inactive) | 47.4 µM (inactive) | 48.9 µM (inactive) | 76.6 µM (inactive) | 73.5 µM (inactive) | 72.6 µM (inactive) | 37 µM (inactive) | 33.4 µM (inactive) | –
O=c1oc2c3ccc4ccccc4c3n(CCN3CCCCC3)c2c2ccccc12 | > 100 µM (inactive) | > 100 µM (inactive) | 28.8 µM (inactive) | > 100 µM (inactive) | – | 23.8 µM (inactive) | – | – | 37.2 µM (inactive) | 30.3 µM (inactive) | 15.6 µM (inactive) | 10.1 µM (inactive) | 21.4 µM (inactive) | – | 49.4 µM (inactive) | 16.8 µM (inactive) | > 62.5 µM (inactive) | 36.3 µM (inactive) | 89.5 µM (inactive) | 25.6 µM (inactive)
CC1C(=O)N(C)C2(CO)C(=O)O[C@H](C)C12O (stereo partly drawn) | > 100 µM (inactive) | < 0.01 µM (active) | > 100 µM (inactive) | – | – | > 100 µM (inactive) | – | – | > 100 µM (inactive) | > 100 µM (inactive) | > 100 µM (inactive) | > 100 µM (inactive) | > 100 µM (inactive) | – | > 100 µM (inactive) | 28.1 µM (inactive) | – | > 100 µM (inactive) | – | > 100 µM (inactive)
CC1(C)S[C@@H]2[C@H](NC(=O)C3(N)CCCCC3)C(=O)N2[C@H]1C(=O)O [CYCLACILLIN] | > 100 µM (inactive) | > 100 µM (inactive) | > 100 µM (inactive) | > 100 µM (inactive) | > 100 µM (inactive) | > 100 µM (inactive) | > 100 µM (inactive) | > 100 µM (inactive) | > 100 µM (inactive) | > 100 µM (inactive) | > 100 µM (inactive) | > 100 µM (inactive) | > 100 µM (inactive) | > 100 µM (inactive) | > 100 µM (inactive) | > 100 µM (inactive) | > 100 µM (inactive) | > 100 µM (inactive) | > 100 µM (inactive) | –
C[C@@H]1[C@@H](C)C(c2ccccc2)O[Si]1(C(C)(C)C)C(C)(C)C (stereo partly drawn) | 20.6 µM (inactive) | 21.5 µM (inactive) | 13.8 µM (inactive) | 17.4 µM (inactive) | 18.1 µM (inactive) | 37.8 µM (inactive) | 16.9 µM (inactive) | 22.5 µM (inactive) | 16.4 µM (inactive) | 9.71 µM (inactive) | 16.6 µM (inactive) | 15.2 µM (inactive) | 15.6 µM (inactive) | 16.6 µM (inactive) | 17.2 µM (inactive) | 16.6 µM (inactive) | 17.1 µM (inactive) | 19.1 µM (inactive) | > 10 µM (inactive) | –
O=P(O)(O)CN1CCNCCN(CP(=O)(O)O)CCN(CP(=O)(O)O)CCNCC1 | > 100 µM (inactive) | > 100 µM (inactive) | > 100 µM (inactive) | > 100 µM (inactive) | > 100 µM (inactive) | > 100 µM (inactive) | > 100 µM (inactive) | 26400 µM (inactive) | > 100 µM (inactive) | 0.296 µM (active) | 42600 µM (inactive) | 31.3 µM (inactive) | > 100000 µM (inactive) | 93.5 µM (inactive) | > 100 µM (inactive) | > 100 µM (inactive) | > 100 µM (inactive) | > 100 µM (inactive) | 1.73 µM (inactive) | –
Oc1ccc(SCc2cc(O)ccc2O)cc1 | 2.67 µM (inactive) | 22.3 µM (inactive) | 23.7 µM (inactive) | 10.2 µM (inactive) | 14.4 µM (inactive) | 5.5 µM (inactive) | 16.5 µM (inactive) | 14.4 µM (inactive) | 18.4 µM (inactive) | 19.5 µM (inactive) | 41.3 µM (inactive) | 36 µM (inactive) | 28.5 µM (inactive) | 34 µM (inactive) | 6.05 µM (inactive) | 15.6 µM (inactive) | 13.9 µM (inactive) | 17.1 µM (inactive) | 2.85 µM (inactive) | –
